# Measured values from PubChem BioAssay AID652001 (The Scripps Research Institute Molecular Screening Center, 2013).
# Tests used:
# [1] = target: Acyl-protein thioesterase 2 (Homo sapiens) (UniProt O95372); assay: LYPLA2 enzyme kinetics with inhibitors – biochemical, substrate-based fluorescence, Ki, Km, Vmax, late-stage follow-up (AID 652001); settings: recombinant LYPLA2, resorufin acetate hydrolysis fluorescence
# [2] = target: LYPLA2; assay: as above; settings: recombinant LYPLA2, resorufin acetate hydrolysis fluorescence, Ki from Cheng-Prusoff
# Sequence of Acyl-protein thioesterase 2 (Homo sapiens) (O95372 whole entry, looked up): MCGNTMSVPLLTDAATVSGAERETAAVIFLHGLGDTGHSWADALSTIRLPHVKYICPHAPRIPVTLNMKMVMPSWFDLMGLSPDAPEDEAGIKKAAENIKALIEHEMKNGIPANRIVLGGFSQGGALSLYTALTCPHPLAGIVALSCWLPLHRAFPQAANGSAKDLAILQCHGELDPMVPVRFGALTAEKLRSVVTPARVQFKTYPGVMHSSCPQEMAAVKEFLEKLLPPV
structure (smiles),measurement,setting,value
COc1ccc(N2CCN(C(=O)c3cc4c(s3)-c3ccccc3S(=O)(=O)C4)CC2)cc1,IC50,[1],510 nM
same,Ki,[2],230 nM
